In PMC4737989 (European journal of medicinal chemistry, 2016):

Experiments:
HEK293T cells = conditions: treated HEK293 cells, Cell-TiterGlo
[1] = biological target: T1, VDR-LBD / Alexa Fluor-SRC2-3 coactivator peptide (Homo sapiens, UniProt P11473, DEL165-215); assay: VDR-coactivator binding fluorescence polarization assay, competitive inhibition
T1 sequence (P11473 with tags, fused parts or gaps DEL165-215 limits assumed): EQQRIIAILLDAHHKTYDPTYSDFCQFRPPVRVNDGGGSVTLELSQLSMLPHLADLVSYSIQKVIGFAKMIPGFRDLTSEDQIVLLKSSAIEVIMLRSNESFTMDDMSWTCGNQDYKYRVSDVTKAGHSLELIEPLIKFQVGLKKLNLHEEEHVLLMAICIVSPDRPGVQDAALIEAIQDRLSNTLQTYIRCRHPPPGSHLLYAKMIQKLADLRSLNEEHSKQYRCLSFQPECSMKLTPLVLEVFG

[2] = biological target: T1, VDR-LBD / Alexa Fluor-SRC2-3 coactivator peptide; assay: VDR-coactivator binding fluorescence polarization assay, agonistic binding; conditions: without LG190178
VP16-VDR-LBD / SRC1-GAL4 [3] = biological target: T2, VP16-VDR-LBD / SRC1-GAL4 (Homo sapiens, UniProt P11473); assay: Two-hybrid assay in HEK293T cells, inhibition in the presence of 10 nM 1,25; format: cell-based; conditions: 10 nM 1,25(OH)2D3
T2 sequence (P11473 127-423 limits assumed): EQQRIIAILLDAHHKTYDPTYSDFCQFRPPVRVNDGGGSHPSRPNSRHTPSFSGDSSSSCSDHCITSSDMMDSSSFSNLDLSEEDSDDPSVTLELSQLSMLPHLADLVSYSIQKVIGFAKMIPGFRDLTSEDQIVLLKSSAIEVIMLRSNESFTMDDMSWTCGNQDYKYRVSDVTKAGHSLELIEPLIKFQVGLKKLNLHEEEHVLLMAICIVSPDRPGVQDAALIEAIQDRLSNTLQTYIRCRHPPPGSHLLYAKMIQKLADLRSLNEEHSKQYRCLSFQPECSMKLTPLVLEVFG

PPARα-Gal4 = biological target: T3, PPARα-Gal4 (Homo sapiens, UniProt Q07869); format: cell-based; conditions: HEK293 cells, luminescence
T3 sequence (Q07869 1-468): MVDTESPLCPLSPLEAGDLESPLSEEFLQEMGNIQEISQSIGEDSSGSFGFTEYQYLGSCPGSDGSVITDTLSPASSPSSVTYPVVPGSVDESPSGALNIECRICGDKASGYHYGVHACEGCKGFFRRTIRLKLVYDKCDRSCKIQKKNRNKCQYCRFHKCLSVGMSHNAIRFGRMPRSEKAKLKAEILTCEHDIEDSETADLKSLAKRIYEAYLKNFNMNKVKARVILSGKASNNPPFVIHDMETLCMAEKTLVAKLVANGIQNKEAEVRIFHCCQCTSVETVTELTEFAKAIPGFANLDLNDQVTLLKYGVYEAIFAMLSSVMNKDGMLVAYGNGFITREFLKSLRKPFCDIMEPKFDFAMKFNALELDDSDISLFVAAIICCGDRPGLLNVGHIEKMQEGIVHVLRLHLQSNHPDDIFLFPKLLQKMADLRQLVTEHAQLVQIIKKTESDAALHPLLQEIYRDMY

VDR target gene CYP24A1 = assay: CYP24A1 gene regulation in DU145 cells by qRT-PCR; format: cell-based; conditions: 7.5 μM, with 20 nM 1,25(OH)2D3, 18 hours
VDR = conditions: cited from earlier work
VP16-VDR-LBD / SRC1-GAL4 [4] = biological target: T2, VP16-VDR-LBD / SRC1-GAL4; assay: Two-hybrid assay in HEK293T cells, agonist mode; format: cell-based

SMILES: C[C@H](CCC(=O)O)[C@H]1CC[C@H]2[C@@H]3[C@H](O)C[C@@H]4C[C@H](O)CC[C@]4(C)[C@H]3CC[C@]12C [CDCA, chenodeoxycholic acid]
- Toxicity LD50 (HEK293T cells): >150 µM

SMILES: C=C1/C(=C\C=C2/CCC[C@]3(C)[C@@H]([C@H](C)CC(=O)O)CC[C@@H]23)C[C@@H](O)C[C@@H]1O [Calcitroic Acid, calcitroic acid]
- Potency of VDR-SRC2-3 inhibition relative to LCA ([1]; ratio of IC50 values): approximately six times more potent
- VDR-LBD recruitment of SRC2-3 coactivator peptide (in words) [2]: not able to support

SMILES: CC(=O)O[C@@H]1CC[C@@]2(C)[C@H](CC[C@@H]3[C@@H]2CC[C@]2(C)[C@@H]([C@H](C)CCC(=O)O)CC[C@@H]32)C1 [LCA Acetate]
- Inhibition of VDR-SRC1 binding in the presence of 1,25(OH)2D3 (in words) (VP16-VDR-LBD / SRC1-GAL4 [3]): No inhibition
- VDR-LBD recruitment of SRC2-3 coactivator peptide (in words) [2]: not able to support

SMILES: C[C@H](CCC(=O)O)[C@H]1CC[C@H]2[C@@H]3CC[C@@H]4C[C@H](O[C@@H]5O[C@H](C(=O)O)[C@@H](O)[C@H](O)[C@H]5O)CC[C@]4(C)[C@H]3CC[C@]12C [LCA Gluc I, lithocholic acid glucuronide I]
- Inhibition of VDR-SRC1 binding in the presence of 1,25(OH)2D3 (in words) (VP16-VDR-LBD / SRC1-GAL4 [3]): no inhibition
- Activation of transcription for the PPARα-Gal4 system (PPARα-Gal4): no activation of transcription

SMILES: C[C@H](CCC(=O)O[C@@H]1O[C@H](C(=O)O)[C@@H](O)[C@H](O)[C@H]1O)[C@H]1CC[C@H]2[C@@H]3CC[C@@H]4C[C@H](O)CC[C@]4(C)[C@H]3CC[C@]12C [LCA Gluc II, lithocholic acid glucuronide II]
- Inhibition of VDR-SRC1 binding in the presence of 1,25(OH)2D3 (in words) (VP16-VDR-LBD / SRC1-GAL4 [3]): no inhibition
- Induction of CYP24A1 in the presence of 1,25(OH)2D3 (in words) (VDR target gene CYP24A1): more pronounced
- Activation of transcription for the PPARα-Gal4 system (PPARα-Gal4): no activation of transcription

SMILES: C[C@H](CCC(=O)O)[C@H]1CC[C@H]2[C@@H]3CC[C@@H]4C[C@H](O)CC[C@]4(C)[C@H]3CC[C@]12C [LCA, lithocholic acid]
- Reported cellular activity (VDR): approximately 10 μM

SMILES: COC(=O)CC[C@@H](C)[C@H]1CC[C@H]2[C@@H]3CC[C@@H]4C[C@H](O)CC[C@]4(C)[C@H]3CC[C@]12C [LCME, lithocholic acid methyl ester]
- Inhibition of VDR-SRC2-3 binding (in words) ([1]; fluorescence polarization, with LG190178): inactive
- Activation in the cellular VDR-SRC1 2-hybrid assay (in words) (VP16-VDR-LBD / SRC1-GAL4 [4]): did not activate transcription
- VDR-LBD recruitment of SRC2-3 coactivator peptide (in words) [2]: not able to support

SMILES: C[C@H](CCC(=O)O)[C@H]1CC[C@H]2[C@@H]3[C@@H](O)C[C@@H]4C[C@H](O)CC[C@]4(C)[C@H]3CC[C@]12C [UDCA, ursodeoxycholic acid]
- Toxicity LD50 (HEK293T cells): >150 µM
